“And” between values parts separate entries of the source, which are not always exact repeats. Identical values can stand only once. Toxic doses and inconclusive results are not listed. Cut-off read from the data, not from the text of the source: active = T/C of 150% or more; inactive = T/C below 125%.
Test system: L1210 leukemia ip in BDF1 mice, survival T/C
Assay: NCI In Vivo Anticancer Drug Screen. Data for tumor model L1210 Leukemia (intraperitoneal) in B6D2F1 (BDF1) mice
Settings: endpoint: mean survival time, higher = longer survival
Summary of the method: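 Read-out is survival time, reported as the treated-group measurement over the vehicle-control measurement.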

[1] = dose: 100.0 mg/kg/injection, schedule: Q04DX003 (ip), vehicle: saline with Tween-80
[2] = dose: 200.0 mg/kg/injection, schedule: Q04DX003 (ip), vehicle: saline with Tween-80
[3] = dose: 400.0 mg/kg/injection, schedule: Q04DX003 (ip), vehicle: saline with Tween-80
[4] = dose: 100.0 mg/kg/injection, schedule: Q01DX009 (ip), vehicle: Klucel (hydroxypropylcellulose) (HPC)
[5] = dose: 100.0 mg/kg/injection, schedule: Q04DX003 (ip), vehicle: Klucel (hydroxypropylcellulose) (HPC)
[6] = dose: 200.0 mg/kg/injection, schedule: Q01DX009 (ip), vehicle: Klucel (hydroxypropylcellulose) (HPC)
[7] = dose: 200.0 mg/kg/injection, schedule: Q04DX003 (ip), vehicle: Klucel (hydroxypropylcellulose) (HPC)
[8] = dose: 400.0 mg/kg/injection, schedule: Q01DX009 (ip), vehicle: Klucel (hydroxypropylcellulose) (HPC)
[9] = dose: 400.0 mg/kg/injection, schedule: Q04DX003 (ip), vehicle: Klucel (hydroxypropylcellulose) (HPC)
[10] = dose: 100.0 mg/kg/injection, schedule: Q01DX009 (ip), vehicle: saline
[11] = dose: 25.0 mg/kg/injection, schedule: Q01DX009 (ip), vehicle: Klucel (hydroxypropylcellulose) (HPC)
[12] = dose: 50.0 mg/kg/injection, schedule: Q01DX009 (ip), vehicle: Klucel (hydroxypropylcellulose) (HPC)
[13] = dose: 100.0 mg/kg/injection, schedule: Q01DX009 (ip), vehicle: saline with Tween-80
[14] = dose: 200.0 mg/kg/injection, schedule: Q01DX009 (ip), vehicle: saline with Tween-80
[15] = dose: 100.0 mg/kg/injection, schedule: Q04DX002 (ip), vehicle: saline with Tween-80
[16] = dose: 200.0 mg/kg/injection, schedule: Q04DX002 (ip), vehicle: saline with Tween-80
[17] = dose: 400.0 mg/kg/injection, schedule: Q04DX002 (ip), vehicle: saline with Tween-80
[18] = dose: 100.0 mg/kg/injection, schedule: Q01DX001 (ip), vehicle: saline with Tween-80
[19] = dose: 200.0 mg/kg/injection, schedule: Q01DX001 (ip), vehicle: saline with Tween-80
[20] = dose: 400.0 mg/kg/injection, schedule: Q01DX001 (ip), vehicle: saline with Tween-80

Measured: T/C

CN(C)CCOC(=O)c1cccc(CCl)c1CCl
inactive: dose: 87.5 mg/kg/injection, schedule: Q01DX009 (ip), vehicle: saline 106 % of control

O=C(O)c1cnc(Cl)c(Br)c1
inactive: [1] 94 % of control | [2] 94 % of control | [3] 96 % of control

COC(=O)CCSC(c1ccccc1)(c1ccccc1)c1ccccc1
inactive: [4] 104 % of control | [5] 96 % of control | [6] 94 % of control | [7] 93 % of control | [8] 100 % of control | [9] 93 % of control

CN1CCN(C(=S)Nc2ccc([N+](=O)[O-])cc2)CC1
inactive: [4] 98 % of control | [6] 105 % of control | [8] 96 % of control

CCCC(CCN(C)C)(CNC(=O)CN(CC)CC)c1cccc2ccccc12 (stereo not given)
inactive: dose: 50.0 mg/kg/injection, schedule: Q04DX002 (ip), vehicle: saline 105 % of control | [10] 99 % of control | dose: 100.0 mg/kg/injection, schedule: Q04DX002 (ip), vehicle: saline 100 % of control | dose: 200.0 mg/kg/injection, schedule: Q04DX002 (ip), vehicle: saline 100 % of control

CCc1ccc(NC(=O)c2ccco2)cc1
inactive: [11] 98 % of control | [12] 96 % of control | [4] 98 % of control

COc1ccc(NC(C)=O)c(C)c1
inactive: [13] 99 % of control | [1] 112 % of control | [14] 96 % of control | [2] 119 % of control | dose: 400.0 mg/kg/injection, schedule: Q01DX009 (ip), vehicle: saline with Tween-80 103 % of control | [3] 96 % of control

COc1cc([N+](=O)[O-])cc2c1OC1(C=C2)N(C)c2ccccc2C1(C)C (stereo not given)
inactive: dose: 25.0 mg/kg/injection, schedule: Q04DX002 (ip), vehicle: gum acacia 111 % of control | dose: 50.0 mg/kg/injection, schedule: Q04DX002 (ip), vehicle: gum acacia 97 % of control and 100 % of control | dose: 100.0 mg/kg/injection, schedule: Q04DX002 (ip), vehicle: gum acacia 100 % of control | dose: 200.0 mg/kg/injection, schedule: Q04DX002 (ip), vehicle: gum acacia 108 % of control

CC(=O)OCCC(COC(C)=O)n1ccc(=O)[nH]c1=O (stereo not given)
inactive: [15] 91 % of control | [16] 105 % of control | [17] 102 % of control

CCOC(=O)C(O)c1ccc[nH]1 (stereo not given)
inactive: [18] 115 % of control | [1] 89 % of control | [19] 115 % of control | [20] 111 % of control | [3] 95 % of control

CCC(CO)Nc1nc2c(Cl)cc(Cl)cc2c2ccccc12 (stereo not given)
inactive: [5] 100 % of control | [7] 100 % of control | [9] 90 % of control

COC1OC(COC(=O)c2ccc([N+](=O)[O-])cc2)C(OC(=O)c2ccc([N+](=O)[O-])cc2)C1OCc1ccccc1 (stereo not given)
inactive: dose: 75.0 mg/kg/injection, schedule: Q01DX001 (ip), vehicle: other 86 % of control | dose: 150.0 mg/kg/injection, schedule: Q01DX001 (ip), vehicle: other 86 % of control | dose: 300.0 mg/kg/injection, schedule: Q01DX001 (ip), vehicle: other 86 % of control and 89 % of control

c1ccc2c(c1)cnn1cnnc21
inactive: dose: 75.0 mg/kg/injection, schedule: Q01DX001 (ip), vehicle: carboxymethylcellulose (CMC) 115 % of control | dose: 150.0 mg/kg/injection, schedule: Q01DX001 (ip), vehicle: carboxymethylcellulose (CMC) 97 % of control

CC(O)C#CC(C)O (stereo not given)
inactive: dose: 12.5 mg/kg/injection, schedule: Q01DX009 (ip), vehicle: Klucel (hydroxypropylcellulose) (HPC) 89 % of control | dose: 12.5 mg/kg/injection, schedule: Q04DX003 (ip), vehicle: Klucel (hydroxypropylcellulose) (HPC) 92 % of control | [11] 102 % of control | dose: 25.0 mg/kg/injection, schedule: Q04DX003 (ip), vehicle: Klucel (hydroxypropylcellulose) (HPC) 96 % of control | [12] 103 % of control | dose: 50.0 mg/kg/injection, schedule: Q04DX003 (ip), vehicle: Klucel (hydroxypropylcellulose) (HPC) 103 % of control

CC(=O)Oc1ccc2nccc(C)c2c1
inactive: dose: 100.0 mg/kg/injection, schedule: Q01DX001 (ip), vehicle: saline 100 % of control | dose: 200.0 mg/kg/injection, schedule: Q01DX001 (ip), vehicle: saline 100 % of control | dose: 400.0 mg/kg/injection, schedule: Q01DX001 (ip), vehicle: saline 100 % of control

C=C(C)Cc1c(C)c(C)c(OS(=O)(=O)c2ccc(Br)cc2)c(C)c1C
inactive: dose: 50.0 mg/kg/injection, schedule: Q04DX003 (ip), vehicle: gum acacia 89 % of control | dose: 100.0 mg/kg/injection, schedule: Q04DX003 (ip), vehicle: gum acacia 89 % of control | dose: 200.0 mg/kg/injection, schedule: Q04DX003 (ip), vehicle: gum acacia 91 % of control

CN=C1N[N+]2=C(C)CSCC2(C)S1 (stereo not given)
inactive: dose: 100.0 mg/kg/injection, schedule: Q04DX003 (ip), vehicle: saline 98 % of control | dose: 200.0 mg/kg/injection, schedule: Q04DX003 (ip), vehicle: saline 98 % of control | dose: 400.0 mg/kg/injection, schedule: Q04DX003 (ip), vehicle: saline 89 % of control

CCOC(=O)c1[nH]c(C)c(C(=O)OCC)c1-c1ccccc1
inactive: [18] 98 % of control | [19] 106 % of control | [20] 100 % of control

COc1nn(O)cc(C)c1=N
inactive: dose: 25.0 mg/kg/injection, schedule: Q04DX002 (ip), vehicle: saline with Tween-80 92 % of control | [15] 96 % of control

COc1cc(/C=N/NC(=O)CCCCCCCCC(=O)N/N=C/c2ccc(O)c(OC)c2)ccc1O
inactive: dose: 50.0 mg/kg/injection, schedule: Q01DX009 (ip), vehicle: saline with Tween-80 95 % of control and 97 % of control | [18] 92 % of control | [13] 93 % of control and 91 % of control | [15] 101 % of control | [1] 87 % of control | [19] 95 % of control | [14] 94 % of control and 100 % of control | [16] 93 % of control and 103 % of control | [2] 97 % of control | [20] 92 % of control | [17] 90 % of control | [3] 101 % of control

O=C1c2ccccc2CCC12OC2c1ccc(Cl)cc1 (stereo not given)
inactive: dose: 50.0 mg/kg/injection, schedule: Q01DX009 (ip), vehicle: saline 102 % of control | [10] 107 % of control | [1] 108 % of control | dose: 200.0 mg/kg/injection, schedule: Q01DX009 (ip), vehicle: saline 98 % of control | [2] 95 % of control | dose: 400.0 mg/kg/injection, schedule: Q01DX009 (ip), vehicle: saline 100 % of control | [3] 103 % of control
